PMC8455565 (Scientific Reports, 2021)

Assays:
NK cells (LPS) = test: High-dimensional phosphorylation analysis, NK cells (LPS); format: cell-based, human; settings: 30 µM, 60'
JAK3 = target: T1, JAK3 (Homo sapiens, UniProt P52333); test: Kinase selectivity biochemical assay, JAK3
T1 sequence (P52333 1-1124): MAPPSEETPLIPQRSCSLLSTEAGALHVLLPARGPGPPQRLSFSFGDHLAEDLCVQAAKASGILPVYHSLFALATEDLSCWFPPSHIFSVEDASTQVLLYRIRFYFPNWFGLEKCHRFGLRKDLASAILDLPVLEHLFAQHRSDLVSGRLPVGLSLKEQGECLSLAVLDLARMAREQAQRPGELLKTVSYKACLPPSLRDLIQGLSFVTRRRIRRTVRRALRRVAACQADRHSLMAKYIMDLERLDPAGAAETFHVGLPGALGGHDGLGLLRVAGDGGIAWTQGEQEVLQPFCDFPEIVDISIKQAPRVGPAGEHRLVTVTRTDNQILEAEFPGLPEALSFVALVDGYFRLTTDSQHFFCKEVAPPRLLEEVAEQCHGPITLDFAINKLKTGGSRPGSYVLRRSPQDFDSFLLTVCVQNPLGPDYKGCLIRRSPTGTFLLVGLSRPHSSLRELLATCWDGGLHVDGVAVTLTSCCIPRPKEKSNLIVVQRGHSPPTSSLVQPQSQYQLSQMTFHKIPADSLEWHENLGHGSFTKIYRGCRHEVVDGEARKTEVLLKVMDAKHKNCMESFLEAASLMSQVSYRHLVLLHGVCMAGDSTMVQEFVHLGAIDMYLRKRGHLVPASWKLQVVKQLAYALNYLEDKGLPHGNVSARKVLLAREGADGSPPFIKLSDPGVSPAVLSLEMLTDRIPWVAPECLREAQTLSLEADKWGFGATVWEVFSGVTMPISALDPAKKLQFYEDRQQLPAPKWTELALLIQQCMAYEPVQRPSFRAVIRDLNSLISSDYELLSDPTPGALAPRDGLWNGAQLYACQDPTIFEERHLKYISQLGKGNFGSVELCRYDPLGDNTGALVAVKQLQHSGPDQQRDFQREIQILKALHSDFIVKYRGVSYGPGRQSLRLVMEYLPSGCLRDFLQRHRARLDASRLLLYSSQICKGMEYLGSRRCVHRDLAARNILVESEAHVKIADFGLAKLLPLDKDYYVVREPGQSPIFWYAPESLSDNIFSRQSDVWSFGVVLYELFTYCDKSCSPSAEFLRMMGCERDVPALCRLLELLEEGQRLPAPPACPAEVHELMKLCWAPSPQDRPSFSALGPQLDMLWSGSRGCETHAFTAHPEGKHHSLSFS

BMX = target: T2, BMX (Homo sapiens, UniProt P51813); test: Kinase selectivity biochemical assay (FRET), BMX
T2 sequence (P51813 1-675): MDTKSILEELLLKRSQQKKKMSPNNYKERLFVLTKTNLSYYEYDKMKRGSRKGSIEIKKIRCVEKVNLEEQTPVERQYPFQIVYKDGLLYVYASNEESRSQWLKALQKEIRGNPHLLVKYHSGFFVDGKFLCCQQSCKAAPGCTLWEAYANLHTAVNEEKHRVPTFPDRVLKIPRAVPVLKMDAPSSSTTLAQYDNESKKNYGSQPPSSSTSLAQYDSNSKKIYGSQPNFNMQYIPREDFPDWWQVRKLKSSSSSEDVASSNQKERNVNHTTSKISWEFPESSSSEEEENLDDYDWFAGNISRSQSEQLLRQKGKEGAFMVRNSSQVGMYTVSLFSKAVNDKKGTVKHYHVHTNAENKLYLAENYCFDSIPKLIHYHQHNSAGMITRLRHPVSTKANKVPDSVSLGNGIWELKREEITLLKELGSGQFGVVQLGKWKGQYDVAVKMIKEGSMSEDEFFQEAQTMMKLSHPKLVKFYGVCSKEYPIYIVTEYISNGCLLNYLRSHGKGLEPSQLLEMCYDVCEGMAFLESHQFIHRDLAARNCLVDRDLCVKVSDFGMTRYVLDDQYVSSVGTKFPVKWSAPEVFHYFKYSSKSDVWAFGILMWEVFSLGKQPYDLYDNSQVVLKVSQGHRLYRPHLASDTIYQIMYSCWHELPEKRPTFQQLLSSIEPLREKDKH

TEC = target: T3, TEC (Homo sapiens, UniProt P42680); test: Kinase biochemical assay (FRET), TEC; settings: read-out: inhibitory activity on TEC
T3 sequence (P42680 1-631): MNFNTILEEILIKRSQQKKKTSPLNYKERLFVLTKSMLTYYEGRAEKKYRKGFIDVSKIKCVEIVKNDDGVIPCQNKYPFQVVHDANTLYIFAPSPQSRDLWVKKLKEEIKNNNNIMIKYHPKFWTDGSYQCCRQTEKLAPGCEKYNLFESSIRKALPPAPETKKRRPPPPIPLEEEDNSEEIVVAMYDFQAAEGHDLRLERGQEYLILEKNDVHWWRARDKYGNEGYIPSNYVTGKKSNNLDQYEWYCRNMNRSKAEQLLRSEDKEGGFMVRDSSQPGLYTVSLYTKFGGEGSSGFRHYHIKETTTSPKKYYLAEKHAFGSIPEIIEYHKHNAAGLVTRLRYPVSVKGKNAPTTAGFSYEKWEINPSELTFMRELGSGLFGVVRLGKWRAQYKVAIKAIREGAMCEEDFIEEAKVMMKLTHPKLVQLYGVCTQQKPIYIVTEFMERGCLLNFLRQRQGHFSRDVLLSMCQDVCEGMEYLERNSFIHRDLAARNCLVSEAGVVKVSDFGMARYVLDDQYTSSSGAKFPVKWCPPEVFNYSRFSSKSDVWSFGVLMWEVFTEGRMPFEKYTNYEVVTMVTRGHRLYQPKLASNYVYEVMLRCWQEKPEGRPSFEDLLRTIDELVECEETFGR

Monocytes (M-CSF) = test: High-dimensional phosphorylation analysis, Monocytes (M-CSF); format: cell-based, human
Description: The analysis measured 94 intracellular signaling nodes (81 phosphorylation sites, 10 total protein levels and 3 methylation/acetylation sites) in stimulated immune cells, including B cells (IgM plus CD40L), CD4 + and CD8 + T cells (IL-2; CD3 plus CD28), monocytes (M-CSF), NK cells (IL-2), and granulocytes (LPS).

## C=CC(=O)Nc1cccc(Oc2nc(Nc3ccc(N4CCN(C)CC4)cc3)nc3ccoc23)c1 [Poseltinib]
NK cells (LPS)
  AKT1 phosphorylation, Log2Ratio Stim/Control: 0.44
  Akt phosphorylation, Log2Ratio Stim/Control: 0.54
  BTK phosphorylation, Log2Ratio Stim/Control: -0.04
  GSK3B phosphorylation, Log2Ratio Stim/Control: 0.91
  MAP2K1 phosphorylation, Log2Ratio Stim/Control: 0.51
  MNK phosphorylation, Log2Ratio Stim/Control: 0.07
  P38 phosphorylation, Log2Ratio Stim/Control: 0.36
  RPS6 phosphorylation, Log2Ratio Stim/Control: 0.30
NK cells (LPS); first SMAD2 line
  SMAD2 phosphorylation, Log2Ratio Stim/Control: 0.67
NK cells (LPS); second SMAD2 line
  SMAD2 phosphorylation, Log2Ratio Stim/Control: 0.07
JAK3
  selectivity toward BTK over JAK3: 7.5 ×
BMX
  IC50: < 10 nM
TEC
  IC50: < 10 nM
Monocytes (M-CSF); 30 µM, 5'
  AKT1 phosphorylation, Log2Ratio Stim/Control: 0.41
  Akt phosphorylation, Log2Ratio Stim/Control: 1.06
  BTK phosphorylation, Log2Ratio Stim/Control: -0.12
  GSK3B phosphorylation, Log2Ratio Stim/Control: 0.82
  HSP27 phosphorylation, Log2Ratio Stim/Control: 1.80
  MAPK3 phosphorylation, Log2Ratio Stim/Control: 1.88
  NDRG1 phosphorylation, Log2Ratio Stim/Control: 0.97
  RELB phosphorylation, Log2Ratio Stim/Control: 0.82
  RPS6KA1 phosphorylation, Log2Ratio Stim/Control: 1.33
  RPS6 phosphorylation, Log2Ratio Stim/Control: 0.89
Monocytes (M-CSF); data not shown
  AKT phosphorylation in monocytes stimulated with M-CSF: did not inhibit
